Source: patent publication US6177409A, “Method for the site specific synthesis of novel 3-hydroxypyridin-4(1H)ons derivatives from aminomonosaccharides or aminoitols, products obtained by this method and their applications” (priority 1996, dated 2001)

Assays:
mice = test: in vivo
Procedure: (§1) The samples are put in a solution either in water or in a mixture of water-DMSO (3:2; v/v) so as to obtain solutions of varying concentrations,either lower than or equal to 130 g·L^-1; the volumes injected are calculated on the basis of 0.2 mL for a mouse body weight of 20 g.
(§2) The toxicity is evaluated starting from aqueous solutions, either buffered or not with NaH2 PO4 or else with Na2 HPO4, or else after addition of a stoichiometric quantity of NaHCO3.
(§3) The 2-methyl-3-hydroxypyridine-4(1H)-one derivatives of glycerol (14), of xylitol (17), of mono-acetone xylose (12) and of solketal (11) were injected by I. V. route.
(§4) The 2-methyl-3-hydroxypyridine-4(1H)-one compound of diacetone xylitol (10) was injected by I. P. route.

in vivo = details: mouse, in vivo
Procedure: as §1, §2, §3, §4

[1] = male and female mice, I.V., (maximum solubility)

For Cc1c(O)c(=O)ccn1CC1OC(C)(C)OC1C1COC(C)(C)O1 (centres unmarked) [Compound 10, 1-(2',3': 4',5'-di-O-isopropylidene-xylityl)-2-methyl-3-hydroxypyridine-4(1H)-one], the “solubility at the doses studied” value (Solubility in water; acute toxicity doses, compared with L1) was “less soluble at the doses studied”, the solubility in water (Solubility in water; water) was “weak” and the “toxicity compared with L1” value (mice; mice) was “weaker toxicity than L1”. The “Macroscopic lesions of visceral organs” value (mice; mouse, in vivo, ip) was “No visceral organ presented macroscopic lesions”, the “Mortality (number of mice)” value (mice; mouse, in vivo, ip, 325 mg/kg) was 0 and the Secondary effects (mice; mouse, in vivo, ip, 325 mg/kg) was “none (5/5)”. For the same compound, the “Mortality (number of mice)” value (mice; mouse, in vivo, ip, 650 mg/kg) was 0, the Secondary effects (mice; mouse, in vivo, ip, 650 mg/kg) was “none (5/5)” and the LD50 (in vivo; ip, LD50) was > 650 mg/kg.

For Cc1c(O)c(=O)ccn1CC1COC(C)(C)O1 (centres unmarked) [Compound 11, 1-(2',3'-O-isopropylidene-glyceryl)-2-methyl-3-hydroxypyridine-4(1H)-one], the “toxicity compared with L1” value (mice; mice) was “toxicity higher than that of L1”, the “LD50 ± SD” value (mice; mouse, in vivo, iv) was 745 ± 84 mg/kg and the neurophysiological effects (mice; mouse, in vivo, iv) was “induces adverse neurophysiological effects”. The “Mortality (number of mice)” value (mice; mouse, in vivo, iv, 500 mg/kg) was 0, the Mortality times (mice; mouse, in vivo, iv, 650 mg/kg) was 3 min and the “Mortality (number of mice)” value (mice; mouse, in vivo, iv, 800 mg/kg) was 2. For the same compound, the “Mortality (number of mice)” value (mice; mouse, in vivo, iv, 1000 mg/kg) was 4, the Secondary effects (mice; mouse, in vivo, iv, 1000 mg/kg) was 1 min. convulsive phase followed by 10 min. of drop in spontaneous activity (10/10) and the “Mortality (number of mice)” value (mice; mouse, in vivo, iv, 1300 mg/kg) was 5. For the same compound, the Mortality times (mice; mouse, in vivo, iv, 1300 mg/kg) was 30-90, the Secondary effects (mice; mouse, in vivo, iv, 1300 mg/kg) was “death preceded by a marked convulsive phase (10/10)” and the LD50 (in vivo; iv, LD50 ± SD) was 817 ± 75 mg/kg.

For Cc1c(O)c(=O)ccn1C[C@H]1O[C@@H]2OC(C)(C)O[C@@H]2[C@H]1O [Compound 12, 1-(1',2'-O-isopropylidene-α-D-xylofuranose-5-yl)-2-methyl-3-hydroxypyridine-4-(1H)-one], the LD10 (mice; female mice, I.V.) was 1000 mg/kg, the “Acute toxicity in mice” value (mice; male mice, I.V.) was “totally innocuous at 1300 mg.kg^-1” and the “toxicity compared with L1” value (mice; mice) was “less toxic than L1”. The “first toxic effects (=LD10)” value (mice; mice, I.V.) was 1300 mg/kg, the Cause of death (mice; mouse, in vivo, iv, 1000 mg/kg) was “respiratory deficiency” and the Mortality times (mice; mouse, in vivo, iv, 1000 mg/kg) was 4 min. The Mortality times (mice; mouse, in vivo, iv, 1300 mg/kg) was 360 to 1080 min.

With Cc1c(O)c(=O)ccn1CC(O)CO (centres unmarked) [Compound 14, 1-glyceryl-2-methyl-3-hydroxypyridine-4(1H)-one] the solubility (Solubility in water; water) was > 130 mg/mL, the “Mortality (number of mice)” value (mice; female, I.V., 1300 mg/kg, water 60/DMSO 40, 5 mice) was 0 and the “Mortality (number of mice)” value (mice; female, I.V., 1300 mg/kg, water, 5 mice) was 0. For the same compound, the “Acute toxicity in mice” value (mice; [1]) was “totally innocuous at 1300 mg.kg^-1”, the “Mortality (number of mice)” value (mice; male, I.V., 1300 mg/kg, water 60/DMSO 40, 5 mice) was 0 and the “Mortality (number of mice)” value (mice; male, I.V., 1300 mg/kg, water, 5 mice) was 0. For the same compound, the “toxicity at 1300 mg/kg” value (mice; mice, I.V., 1300 mg.kg^-1, running text) was “non-toxic”.

In the case of Cc1c(O)c(=O)ccn1CC(O)C(O)C(O)CO (centres unmarked) [Compound 17, 1-xylityl-2-methyl-3-hydroxypyridine-4(1H)-one], the “Acute toxicity in mice” value (mice; [1]) is reported as “totally innocuous at 1000 mg.kg^-1”, the “toxicity compared with L1” value (mice; mice) is reported as “less toxic than L1” and the “first toxic effects (=LD10)” value (mice; mice, I.V.) is reported as 1300 mg/kg. For the same compound, the “Onset of significant decrease in spontaneous activity after injection” value (mice; mouse, in vivo, iv) was ~2 h, the “Mortality (number of mice)” value (mice; mouse, in vivo, iv, 650 mg/kg) was 0 and the Secondary effects (mice; mouse, in vivo, iv, 650 mg/kg) was “none (5/5)”. For the same compound, the “Mortality (number of mice)” value (mice; mouse, in vivo, iv, 1000 mg/kg) was 0, the Secondary effects (mice; mouse, in vivo, iv, 1000 mg/kg) was “none (5/5)” and the “Mortality (number of mice)” value (mice; mouse, in vivo, iv, 1300 mg/kg) was 0.

For Cc1c(O)c(=O)ccn1C [Compound L1, 1.2-dimethyl-3-hydroxypyridine-4(1H)-one, reference compound], the Secondary effects (mice; mouse, in vivo, ip, 650 mg/kg, pH 7) was “spontaneous decrease in activity xx min. before death (5/5)”, the Secondary effects (mice; mouse, in vivo, iv, 325 mg/kg, pH 2.5) was “irritation at injection, spontaneous decrease in activity 2-4 min. (5/5)” and the mortality (in vivo; 1300 mg/kg) was 100%.
